We go through four compounds from patent publication US20220298098A1, “HALOGENATED COMPOUNDS, PROCESS AND USES THEREOF” (Ciimar - Centro Interdisciplinar De Investigaçäo Marinha E …, priority 2019, published 2022).

The subject of assay [1] is coagulase-negative staphylococci. Description: Biofilm formation inhibition, quantification of total biomass by violet crystal staining. The class given is cell-based. The note with it: for IC50: read-out: calculated concentration that inhibits the biofilm formation by 50%. How it is done: The biofilm forming ability of coagulase-negative staphylococci, when exposed to compounds 1, 2, 9 and 16, was assessed by quantification of total biomass by violet crystal staining.

For assay [2], the system named is Staphylococcus aureus S54F9. Description: Broth microdilution antibiotic susceptibility test. It counts as cell-based. As for the experimental part: The methanolic extract was submitted to solid phase extraction (Waters Sep-Pak® Vac 35 cc 10 g C18 Cartridges) using mixtures of water/methanol (4:1 to 1:4; 4 to 8 column volumes each), yielding an enriched fraction free of chlorophylls and other pigments. The fraction was then chromatographed using semi-preparative HPLC conditions with a gradient of water/acetonitrile 19:1 to 0:1 (both with 0.1% of formic acid) as mobile phase. Fractions were collected every 30 s (total run time of 70 min) and 140 fractions were collected into 96-well deep well plates, and a 25% of a 67 mg 140-well fractionation was tested against Staphylococcus aureus S54F9. In order to carry out this broth microdilution antibiotic susceptibility test, 50 μL of each HPLC fraction resuspended in 14% MeOH in water were mixed with 50 μL of the S. aureus suspension at 10^6 CFU/mL in 2×MHB in a microtiter plate (final desired inoculum=5·10^5 CFU/mL, final concentration of MeOH in bioassay plate=7%, final volume per well=100 μL). The microtiter plate was replicated onto a selective/differential solid medium (Manitol Salt Agar) in order to distinguish between bacteriostatic and bactericidal activities. Growth controls (broth with bacterial inoculum, no bioactive molecule) as well as sterility (broth only) and solvent controls (broth with 7% MeOH in water) were included.

[3] abbreviates: coagulase-negative staphylococci biofilm.
[4] abbreviates: S54F9, calculated from the antibiotic activities of the fractions in FIG. 1, range across compounds 1, 2, 9 and 16, read-out: predicted minimal inhibitory concentrations (MICs) against S. aureus.

SMILES strings stand for the structures. Converted amounts (≈) assume the structure as drawn. Read-outs that look alike come from different tables or passages of the source.

Broadly, the inhibition is the change of the read-out against control, counted positive when it falls. Read a high inhibition as a response far below the control. In assay [1] (biofilm formation, 5.65 mg/L), `C[C@H](OC(=O)CCCCC(Cl)CCCCCCCl)C(=O)O` (stereo partly drawn) [Compound 9, (S)-2-[(6,12-dichlorododecanoyl)oxy]propanoic acid] had an inhibition at 5.65 µg/mL of 0%. Also, the inhibition at 11.25 µg/mL in assay [1] (biofilm formation, 11.25 mg/L) turned out to be 22%. Further, the inhibition at 22.5 µg/mL in assay [1] (biofilm formation, 22.5 mg/L) was determined as 56%. The inhibition at 35 µg/mL in assay [1] (biofilm formation, 35 mg/L) came out at 62%. The compound further gave an inhibition at 90 µg/mL in assay [1] (biofilm formation, 90 mg/L) of 66%. The compound also yielded an inhibition at 180 µg/mL in assay [1] (biofilm formation, 180 mg/L) of 76%. Besides, testing at 360 µg/mL in assay [1] (biofilm formation, 360 mg/L) gave an inhibition of 87%. Moreover, the inhibition at 721 µg/mL in assay [1] (biofilm formation, 721 mg/L) came to 88%. The IC50 in assay [1] (setting [3]) is 20.1 µg/mL (≈ 58.9 µM). Also, the MIC in assay [2] (setting [4]) is 1790 to 5790 µg/mL (≈ 5250 to 17000 µM).

As for `C[C@H](OC(=O)CCCCC(Cl)CCCCCC(Cl)Cl)C(=O)O` (stereo partly drawn) [Compound 16, (S)-2-[(6,12,12-trichlorododecanoyl)oxy]propanoic acid], in assay [1], at 37.5 µg/mL the inhibition was 0%, the inhibition at 75 µg/mL worked out at 68%, at 150 µg/mL the inhibition was 71% and the IC50 is 43.4 µg/mL (≈ 116 µM). Besides, the MIC in assay [2] (S54F9, read-out: predicted minimal inhibitory concentrations (MICs) against S. aureus) is 1790 to 5790 µg/mL (≈ 4760 to 15400 µM).

In turn, `C[C@H](OC(=O)CCCCCCCCCCCCl)C(=O)O` [Compound 1, (S)-2-[(12-chlorododecanoyl)oxy]propanoic acid] registered an inhibition at 70 µg/mL in assay [1] (biofilm formation, 70 mg/L) of 0%. The compound further gave an inhibition at 140 µg/mL in assay [1] (biofilm formation, 140 mg/L) of 74%. Further, the IC50 in assay [1] (setting [3]) is 55.1 µg/mL (≈ 180 µM). For the same compound, the MIC in assay [2] (setting [4]) is 1790 to 5790 µg/mL (≈ 5830 to 18900 µM).

On to `CCCCCCC(Cl)CCCCC(=O)O[C@@H](C)C(=O)O` (stereo partly drawn) [Compound 2, (S)-2-[(6-chlorododecanoyl)oxy]propanoic acid], for which the inhibition at 16 µg/mL in assay [1] (biofilm formation, 16 mg/L) came out at 0%. In assay [1] (biofilm formation, 32.12 mg/L), this compound gave an inhibition at 32.12 µg/mL of 31%. In assay [1] (biofilm formation, 64.25 mg/L), the inhibition at 64.25 µg/mL was 74%. Besides, testing at 128.5 µg/mL in assay [1] (biofilm formation, 128.5 mg/L) gave an inhibition of 89%. The compound also yielded an inhibition at 257 µg/mL in assay [1] (biofilm formation, 257 mg/L) of 90%. The IC50 in assay [1] (setting [3]) is 94.6 µg/mL (≈ 308 µM). Further, the MIC in assay [2] (setting [4]) was 1790 to 5790 µg/mL (≈ 5830 to 18900 µM).
